From ChEMBL document CHEMBL2010722, “Structure-activity relationship study of beta-carboline derivatives as haspin kinase inhibitors” (Bioorg Med Chem Lett, 2012)

Experiments:
[1] = target: SRSF protein kinase 1 (Homo sapiens) (UniProt Q96SB4); assay: Inhibition of SRPK1 at 10 uM
[2] = target: Tyrosine-protein kinase CSK (Homo sapiens) (UniProt P41240); assay: Inhibition of CSK at 10 uM
[3] = target: Platelet-derived growth factor receptor beta (Homo sapiens) (UniProt P09619); assay: Inhibition of PDGFRb at 10 uM
[4] = target: cGMP-dependent protein kinase 2 (Homo sapiens) (UniProt Q13237); assay: Inhibition of CGK2 at 10 uM
[5] = target: Serine/threonine-protein kinase Chk1 (Homo sapiens) (UniProt O14757); assay: Inhibition of CHK1 at 10 uM
[6] = target: Hepatocyte growth factor receptor (Homo sapiens) (UniProt P08581); assay: Inhibition of MET at 10 uM
[7] = target: Ephrin type-A receptor 2 (Homo sapiens) (UniProt P29317); assay: Inhibition of EPHA2 at 10 uM
[8] = target: Protein-tyrosine kinase 2-beta (Homo sapiens) (UniProt Q14289); assay: Inhibition of PYK2 at 10 uM
Protein-tyrosine kinase 2-beta (Homo sapiens), sequence (Q14289 whole entry, looked up): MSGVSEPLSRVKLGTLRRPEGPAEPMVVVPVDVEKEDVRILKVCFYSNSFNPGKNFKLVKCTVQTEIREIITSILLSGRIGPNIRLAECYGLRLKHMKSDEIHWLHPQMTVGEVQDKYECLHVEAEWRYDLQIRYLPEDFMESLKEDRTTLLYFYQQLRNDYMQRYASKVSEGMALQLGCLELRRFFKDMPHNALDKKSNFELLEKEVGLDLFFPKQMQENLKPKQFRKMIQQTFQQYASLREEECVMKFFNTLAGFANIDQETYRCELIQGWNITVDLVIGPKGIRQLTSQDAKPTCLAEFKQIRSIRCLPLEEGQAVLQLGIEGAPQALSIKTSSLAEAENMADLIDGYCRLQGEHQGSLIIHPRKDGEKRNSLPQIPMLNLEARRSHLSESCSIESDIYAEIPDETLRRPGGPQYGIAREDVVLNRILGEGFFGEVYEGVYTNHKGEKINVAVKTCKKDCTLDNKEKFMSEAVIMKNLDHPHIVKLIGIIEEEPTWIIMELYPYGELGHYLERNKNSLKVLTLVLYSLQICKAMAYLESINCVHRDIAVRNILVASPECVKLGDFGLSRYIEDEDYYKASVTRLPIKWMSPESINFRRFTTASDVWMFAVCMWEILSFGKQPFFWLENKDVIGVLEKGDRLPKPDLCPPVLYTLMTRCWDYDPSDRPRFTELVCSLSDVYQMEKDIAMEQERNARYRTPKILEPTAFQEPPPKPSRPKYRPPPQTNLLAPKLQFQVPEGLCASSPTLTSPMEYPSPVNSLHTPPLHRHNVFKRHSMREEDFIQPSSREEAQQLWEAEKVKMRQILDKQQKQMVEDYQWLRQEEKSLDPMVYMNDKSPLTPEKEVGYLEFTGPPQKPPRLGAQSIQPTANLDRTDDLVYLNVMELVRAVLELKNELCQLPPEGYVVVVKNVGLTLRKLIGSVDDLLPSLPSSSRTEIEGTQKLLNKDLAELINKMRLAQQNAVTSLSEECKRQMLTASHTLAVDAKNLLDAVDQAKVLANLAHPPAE

[9] = target: Serine/threonine-protein kinase SIK1 (Homo sapiens) (UniProt P57059); assay: Inhibition of SIK at 10 uM
[10] = target: Casein kinase I isoform delta (Homo sapiens) (UniProt P48730); assay: Inhibition of CK1d at 10 uM
Casein kinase I isoform delta (Homo sapiens), sequence (P48730 whole entry, looked up, canonical isoform): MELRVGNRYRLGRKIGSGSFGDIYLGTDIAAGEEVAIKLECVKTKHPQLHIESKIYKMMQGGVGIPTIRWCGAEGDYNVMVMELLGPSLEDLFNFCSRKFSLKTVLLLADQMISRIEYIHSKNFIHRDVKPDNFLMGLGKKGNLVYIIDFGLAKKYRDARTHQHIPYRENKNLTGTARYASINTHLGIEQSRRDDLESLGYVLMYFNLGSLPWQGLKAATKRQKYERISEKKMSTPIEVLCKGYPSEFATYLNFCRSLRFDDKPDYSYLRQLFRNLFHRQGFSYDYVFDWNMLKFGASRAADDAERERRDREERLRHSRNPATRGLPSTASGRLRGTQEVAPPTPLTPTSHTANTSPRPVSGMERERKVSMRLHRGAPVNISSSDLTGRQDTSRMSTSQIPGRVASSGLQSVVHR

[11] = target: Tyrosine-protein kinase Lyn (Homo sapiens) (UniProt P07948); assay: Inhibition of LYNa at 10 uM
[12] = target: Lymphokine-activated killer T-cell-originated protein kinase (Homo sapiens) (UniProt Q96KB5); assay: Inhibition of PBK at 10 uM
[13] = target: Casein kinase II alpha'/ beta (Homo sapiens) (UniProt P67870+P19784); assay: Inhibition of CK2a2/b at 10 uM; type: protein-complex assay
[14] = target: MAP kinase-interacting serine/threonine-protein kinase 2 (Homo sapiens) (UniProt Q9HBH9); assay: Inhibition of MNK2 at 10 uM
MAP kinase-interacting serine/threonine-protein kinase 2 (Homo sapiens), sequence (Q9HBH9 whole entry, looked up): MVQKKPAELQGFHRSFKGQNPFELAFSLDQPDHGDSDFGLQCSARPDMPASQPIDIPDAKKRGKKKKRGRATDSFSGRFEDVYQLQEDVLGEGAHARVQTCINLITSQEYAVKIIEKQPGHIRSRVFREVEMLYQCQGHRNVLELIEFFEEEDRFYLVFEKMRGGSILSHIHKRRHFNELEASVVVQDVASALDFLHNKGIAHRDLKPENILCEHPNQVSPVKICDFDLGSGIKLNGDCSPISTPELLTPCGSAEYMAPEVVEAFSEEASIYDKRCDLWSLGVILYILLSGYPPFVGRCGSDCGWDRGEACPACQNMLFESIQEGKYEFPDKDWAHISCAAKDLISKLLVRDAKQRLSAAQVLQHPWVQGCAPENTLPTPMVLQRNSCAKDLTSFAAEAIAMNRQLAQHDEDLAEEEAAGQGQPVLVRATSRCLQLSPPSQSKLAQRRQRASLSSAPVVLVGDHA

[15] = target: Ephrin type-A receptor 7 (Homo sapiens) (UniProt Q15375); assay: Inhibition of EPHA7 at 10 uM
Ephrin type-A receptor 7 (Homo sapiens), sequence (Q15375 28-998 limits assumed): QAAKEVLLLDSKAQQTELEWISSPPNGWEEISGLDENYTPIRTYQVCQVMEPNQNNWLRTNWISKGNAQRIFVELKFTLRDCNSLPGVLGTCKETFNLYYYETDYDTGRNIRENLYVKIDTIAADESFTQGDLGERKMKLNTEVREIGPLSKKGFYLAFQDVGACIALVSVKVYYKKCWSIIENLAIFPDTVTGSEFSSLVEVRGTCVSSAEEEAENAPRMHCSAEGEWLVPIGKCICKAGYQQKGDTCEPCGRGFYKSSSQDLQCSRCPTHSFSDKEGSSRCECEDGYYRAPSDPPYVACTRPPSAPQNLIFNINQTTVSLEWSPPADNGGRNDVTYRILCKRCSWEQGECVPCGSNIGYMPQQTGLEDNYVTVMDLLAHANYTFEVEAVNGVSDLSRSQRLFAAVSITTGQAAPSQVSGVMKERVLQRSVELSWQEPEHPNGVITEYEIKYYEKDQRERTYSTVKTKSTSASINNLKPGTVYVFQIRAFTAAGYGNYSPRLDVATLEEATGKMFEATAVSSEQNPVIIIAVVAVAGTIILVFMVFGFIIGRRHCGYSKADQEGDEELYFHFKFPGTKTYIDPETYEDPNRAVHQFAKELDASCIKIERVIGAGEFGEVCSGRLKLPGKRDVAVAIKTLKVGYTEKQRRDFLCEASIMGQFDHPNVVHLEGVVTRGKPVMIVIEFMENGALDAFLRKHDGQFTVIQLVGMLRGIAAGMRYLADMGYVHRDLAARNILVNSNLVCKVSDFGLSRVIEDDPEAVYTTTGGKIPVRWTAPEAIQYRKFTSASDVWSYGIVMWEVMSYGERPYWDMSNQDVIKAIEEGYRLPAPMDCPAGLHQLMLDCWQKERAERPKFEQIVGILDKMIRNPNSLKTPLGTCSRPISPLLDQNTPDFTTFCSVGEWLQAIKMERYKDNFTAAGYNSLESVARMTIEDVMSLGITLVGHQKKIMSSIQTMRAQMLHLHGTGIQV

[16] = target: Calcium/calmodulin-dependent protein kinase type 1D (Homo sapiens) (UniProt Q8IU85); assay: Inhibition of CaMK1d at 10 uM
[17] = target: Proto-oncogene tyrosine-protein kinase ROS (Homo sapiens) (UniProt P08922); assay: Inhibition of ROS at 10 uM
[18] = target: Mitogen-activated protein kinase kinase kinase 10 (Homo sapiens) (UniProt Q02779); assay: Inhibition of MLK2 at 10 uM
[19] = target: Mitogen-activated protein kinase 7 (Homo sapiens) (UniProt Q13164); assay: Inhibition of Erk5 at 10 uM
[20] = target: Mitogen-activated protein kinase kinase kinase 12 (Homo sapiens) (UniProt Q12852); assay: Inhibition of DLK at 10 uM
[21] = target: T1, Dual specificity tyrosine-phosphorylation-regulated kinase 2 (Homo sapiens, UniProt Q92630)
T1 sequence (Q92630 whole entry): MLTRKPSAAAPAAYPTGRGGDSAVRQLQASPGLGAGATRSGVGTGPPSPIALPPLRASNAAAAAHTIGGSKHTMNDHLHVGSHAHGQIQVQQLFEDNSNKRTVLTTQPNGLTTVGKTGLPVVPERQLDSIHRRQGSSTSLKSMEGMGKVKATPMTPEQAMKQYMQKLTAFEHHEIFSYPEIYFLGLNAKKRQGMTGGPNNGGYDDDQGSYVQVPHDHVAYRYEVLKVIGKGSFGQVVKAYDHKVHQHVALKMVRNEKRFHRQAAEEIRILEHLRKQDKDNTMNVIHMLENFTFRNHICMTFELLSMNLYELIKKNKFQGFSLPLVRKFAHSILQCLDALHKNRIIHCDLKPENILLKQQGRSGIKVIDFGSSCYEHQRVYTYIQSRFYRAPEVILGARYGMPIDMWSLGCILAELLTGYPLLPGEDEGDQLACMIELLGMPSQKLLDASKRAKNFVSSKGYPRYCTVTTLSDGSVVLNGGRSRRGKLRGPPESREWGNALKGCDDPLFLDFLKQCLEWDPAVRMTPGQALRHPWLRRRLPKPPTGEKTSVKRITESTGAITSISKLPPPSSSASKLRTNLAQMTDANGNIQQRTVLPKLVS

[22] = system: Platelet-derived growth factor receptor alpha (Homo sapiens), P16234 [T674I]; assay: Inhibition of PDGFRa T674I mutant at 10 uM
[23] = target: Dual specificity mitogen-activated protein kinase kinase 7 (Homo sapiens) (UniProt O14733); assay: Inhibition of MAP2K7 at 10 uM
[24] = target: Dual specificity tyrosine-phosphorylation-regulated kinase 2 (Homo sapiens) (UniProt Q92630); assay: Inhibition of DYRK2 at 10 uM
[25] = system: Fibroblast growth factor receptor 3 (Homo sapiens), P22607 [K650M]; assay: Inhibition of FGFR3 K650M mutant at 10 uM
[26] = target: Mitogen-activated protein kinase 10 (Homo sapiens) (UniProt P53779); assay: Inhibition of JNK3 at 10 uM
[27] = target: Aurora kinase A/Targeting protein for Xklp2 (Homo sapiens) (UniProt O14965+Q9ULW0); assay: Inhibition of AurA-TPX2 at 10 uM; type: protein-complex assay
[28] = system: Liver; assay: Intrinsic clearance in mouse liver microsome at 3 uM; type: ADME; conditions: microsomes
[29] = target: Mitogen-activated protein kinase kinase kinase 3 (Homo sapiens) (UniProt Q99759); assay: Inhibition of MAP3K3 at 10 uM
[30] = target: Serine/threonine-protein kinase BRSK2 (Homo sapiens) (UniProt Q8IWQ3); assay: Inhibition of BRSK2 at 10 uM
[31] = target: Calcium/calmodulin-dependent protein kinase type II subunit delta (Homo sapiens) (UniProt Q13557); assay: Inhibition of CaMK2d at 10 uM
[32] = target: Serine/threonine-protein kinase DCLK2 (Homo sapiens) (UniProt Q8N568); assay: Inhibition of DCAMKL2 at 10 uM
[33] = target: Serine/threonine-protein kinase PAK 6 (Homo sapiens) (UniProt Q9NQU5); assay: Inhibition of PAK6 at 10 uM
[34] = target: Serine/threonine-protein kinase D1 (Homo sapiens) (UniProt Q15139); assay: Inhibition of PKD1 at 10 uM
[35] = target: Mitogen-activated protein kinase kinase kinase 9 (Homo sapiens) (UniProt P80192); assay: Inhibition of MLK1 at 10 uM
[36] = target: Mitogen-activated protein kinase kinase kinase 4 (Homo sapiens) (UniProt Q9Y6R4); assay: Inhibition of MAP3K4 at 10 uM
Mitogen-activated protein kinase kinase kinase 4 (Homo sapiens), sequence (Q9Y6R4 whole entry): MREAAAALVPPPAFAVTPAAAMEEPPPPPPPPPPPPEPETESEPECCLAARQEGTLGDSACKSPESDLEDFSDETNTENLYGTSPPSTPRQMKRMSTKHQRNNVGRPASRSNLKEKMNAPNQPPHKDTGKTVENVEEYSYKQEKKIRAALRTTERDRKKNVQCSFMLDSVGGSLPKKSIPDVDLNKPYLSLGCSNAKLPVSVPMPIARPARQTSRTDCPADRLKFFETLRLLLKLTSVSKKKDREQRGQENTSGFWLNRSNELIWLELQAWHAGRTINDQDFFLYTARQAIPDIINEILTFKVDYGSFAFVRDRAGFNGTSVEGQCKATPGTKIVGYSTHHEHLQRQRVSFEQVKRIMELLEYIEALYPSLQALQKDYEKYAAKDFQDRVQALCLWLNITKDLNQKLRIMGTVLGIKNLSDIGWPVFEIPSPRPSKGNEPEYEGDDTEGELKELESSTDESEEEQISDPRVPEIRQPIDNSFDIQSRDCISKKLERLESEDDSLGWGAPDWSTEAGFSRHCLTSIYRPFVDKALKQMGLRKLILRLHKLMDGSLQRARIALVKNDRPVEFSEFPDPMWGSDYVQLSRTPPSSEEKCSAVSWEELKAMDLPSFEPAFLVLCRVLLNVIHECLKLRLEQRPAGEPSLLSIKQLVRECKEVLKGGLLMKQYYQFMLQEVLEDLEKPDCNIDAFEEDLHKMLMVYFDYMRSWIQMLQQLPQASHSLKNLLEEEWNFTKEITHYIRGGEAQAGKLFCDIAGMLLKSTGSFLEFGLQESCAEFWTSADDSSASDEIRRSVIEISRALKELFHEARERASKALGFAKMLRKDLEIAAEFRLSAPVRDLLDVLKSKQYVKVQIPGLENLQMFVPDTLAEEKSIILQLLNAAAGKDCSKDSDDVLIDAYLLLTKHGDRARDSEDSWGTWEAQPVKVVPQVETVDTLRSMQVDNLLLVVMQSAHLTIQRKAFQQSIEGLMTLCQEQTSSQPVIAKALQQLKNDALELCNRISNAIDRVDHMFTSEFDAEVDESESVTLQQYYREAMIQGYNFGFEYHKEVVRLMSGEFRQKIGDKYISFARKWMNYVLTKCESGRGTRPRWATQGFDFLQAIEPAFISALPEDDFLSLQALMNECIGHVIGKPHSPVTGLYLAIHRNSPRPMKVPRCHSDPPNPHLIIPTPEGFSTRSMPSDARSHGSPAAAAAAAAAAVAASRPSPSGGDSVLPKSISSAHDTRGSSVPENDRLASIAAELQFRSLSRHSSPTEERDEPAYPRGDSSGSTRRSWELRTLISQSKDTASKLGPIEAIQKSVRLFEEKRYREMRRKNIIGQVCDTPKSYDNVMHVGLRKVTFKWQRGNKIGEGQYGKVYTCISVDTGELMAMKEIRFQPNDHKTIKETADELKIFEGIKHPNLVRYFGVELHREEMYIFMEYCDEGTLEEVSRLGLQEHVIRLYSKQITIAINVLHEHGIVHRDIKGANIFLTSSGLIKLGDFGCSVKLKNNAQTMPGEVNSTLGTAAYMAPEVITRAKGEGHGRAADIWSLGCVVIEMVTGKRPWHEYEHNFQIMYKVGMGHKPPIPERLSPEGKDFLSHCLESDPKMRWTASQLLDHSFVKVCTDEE

[37] = target: CDK6/cyclin D3 (Homo sapiens) (UniProt P30281+Q00534); assay: Inhibition of CDK6-CycD3 at 10 uM; type: protein-complex assay
[38] = target: Tyrosine-protein kinase TXK (Homo sapiens) (UniProt P42681); assay: Inhibition of TXK at 10 uM

Tyrosine-protein kinase CSK (Homo sapiens), sequence (P41240 2-450 limits assumed): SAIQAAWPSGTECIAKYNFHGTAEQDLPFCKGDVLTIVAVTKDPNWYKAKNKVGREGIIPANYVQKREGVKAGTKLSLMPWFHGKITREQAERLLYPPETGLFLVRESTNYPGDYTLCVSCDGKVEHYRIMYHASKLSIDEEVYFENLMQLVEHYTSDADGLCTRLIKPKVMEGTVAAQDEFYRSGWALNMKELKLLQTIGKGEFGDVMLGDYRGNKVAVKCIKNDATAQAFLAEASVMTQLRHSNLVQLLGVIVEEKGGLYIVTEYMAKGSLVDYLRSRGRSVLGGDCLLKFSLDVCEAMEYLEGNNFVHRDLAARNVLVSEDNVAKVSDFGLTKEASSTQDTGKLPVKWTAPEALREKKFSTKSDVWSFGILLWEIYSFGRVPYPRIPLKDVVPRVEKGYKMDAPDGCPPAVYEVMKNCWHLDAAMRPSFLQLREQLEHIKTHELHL

COc1ccc2c3ccnc(C(F)(F)F)c3n(CCCCN)c2c1
inhibition [1]: 7% | inhibition [2]: 5% | inhibition [3]: 73% | inhibition [4]: 91% | inhibition [5]: 25% | inhibition [6]: 4% | inhibition [7]: 0% | inhibition [8]: 0% | inhibition [9]: 8% | inhibition [10]: 93% | inhibition [11]: 7% | inhibition [12]: 12% | inhibition [13]: 1% | inhibition [14]: 34% | inhibition [15]: 2% | inhibition [16]: 4% | inhibition [17]: 44% | inhibition [18]: 5% | inhibition [19]: 21% | inhibition [20]: 3% | IC50 [21]: 15 µM | inhibition [22]: 49% | inhibition [23]: 15% | inhibition [24]: 86% | inhibition [25]: 0% | inhibition [26]: 17% | inhibition [27]: 0% | CLH [28]: 3.8 µL/min/mg | inhibition [29]: 0% | inhibition [30]: 30% | inhibition [31]: 91% | inhibition [32]: 4% | inhibition [33]: 13% | inhibition [34]: 85% | inhibition [35]: 0% | inhibition [36]: 8% | inhibition [37]: 28% | inhibition [38]: 8%
